Source: paper PMC12560828, “Chemical structure drives developmental toxicity of alkyl-substituted naphthalenes in zebrafish” (Environment international, 2025)

Key:
[1] = tested on: early life stage zebrafish (Danio rerio) embryos; assay: Developmental toxicity morphology screen, sealed rotating vial exposure; type: in vivo; set-up: bmd, MO24 / bmd, MORT / bmd, ANY_ / bmd, AXIS / bmd, CRAN / bmd, EDEM / bmd, LTRK / bmd, MUSC / bmdL, ANY_ / bmdU, ANY_ / bmdL, AXIS / bmdU, AXIS / bmdL, CRAN / bmdU, CRAN / bmdL, EDEM / bmdU, EDEM / bmdL, LTRK / bmdU, LTRK / bmdL, MO24 / bmdU, MO24 / bmdL, MORT / bmdU, MORT: unit not given here; details: for BMC50 Any effect: Fig. 2 heatmap, exposure 6-24 hpf in vials, summary of all endpoints; for any effect BMD50: SI-T5; for estimated percent Any effect: at 20 μM, 120 hpf, estimated from fitted concentration-response curves
In short: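 Bleached 6 hpf embryos, eight per sealed glass vial in 2 mL EM, were dosed from a 200x DMSO stock and rotated end-over-end overnight at 28 °C, then moved to chemical-free EM at 24 hpf (32 embryos per treatment). Blinded binary scoring at 120 hpf was pooled as "Any effect". BMC50 is on nominal concentrations.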

[2] = tested on: zebrafish embryos, gene expression at 48 hpf; assay: Targeted transcriptomics (TempO-Seq S1500+ zebrafish panel), differential expression; type: in vivo, Danio rerio; details: 20 μM
Protocol: Targeted transcriptomics were performed using the Biospyder™ TempO-Seq™ 96-well plate platform. This platform used detector oligos for a gene set of 3112 probes selected through data driven approaches and expert curation ([Balik-Meisner et al., 2019]). The targeted transcriptomics approach was selected to maximize the number of chemicals that could be included in the analysis while managing cost and data analysis requirements. Targeted transcriptomics were limited to 96 samples, three chemicals without morphological effects were excluded from the analysis to ensure n = 4 per chemical and n = 6 controls, excluded chemicals are indicated in SI-T3.
A single exposure concentration of 20 μM was chosen as the maximum possible concentration to elicit a biological response that also ensured enough viable animals for RNA collection for every chemical. The same concentration per chemical was chosen as opposed to a phenotypically anchored concentration due to variability in 48 hpf survival across chemicals at the same 120 hpf percent effect and to allow for a direct comparison of chemical potency and transcriptomic response. 48 hpf was chosen to ensure the measurement of transcriptomic responses prior to the emergence of observable phenotypic effects. This timepoint has been used extensively and enhanced the ability to compare our results across datasets. Exposure was conducted over two days, chemicals were split into day groups by numerical order of randomly generated internal labels, 11 chemicals and control each day, n = 48 embryos across six vials per treatment. Exposure was conducted as previously described in section 2.3. At 48 hpf embryos were collected for RNA extraction. Embryos from two exposure vials were kept for morphological effect assessments which were as expected based on screening results. From the remaining wells, six phenotypically normal embryos were collected and pooled in their vial groups into 1.5 mL Eppendorf tubes, placed on ice (~30 sec), excess medium was removed, placed back on ice (~30 sec), and 200 μL RNA shield was added. […] of n = 6 pooled embryos were collected from each treatment.
RNA was extracted from exposure groups on day one and day two. 100 μL of lysis buffer was added to each tube containing pooled embryo samples and 200 μL of RNA shield, the full contents of the tube were then transferred to the homogenization plate (2 mL deep 96-well plate pre-filled with 400 μL 1 mm zirconium beads and 500 μL of lysis buffer). The plate was homogenized for 1.5 min using the Mini-BeadBeater 96 (BioSpec Products, Bartlesville, OK, United States) and centrifuged for five min at 3000 rcf. 550 μL of the supernatant was distributed over two plates, each pre-filled with 275 μL of ethanol. RNA extraction was performed using the KingFisher Apex System (ThermoFisher Scientific, Waltham, MA, United States) and Quick-RNA Magbead kit (Zymo Research Corporation, Irvine, CA, Untied States). Briefly, this automated process uses Mag beads to collect RNA from the sample, after a series of washes and treatment with DNase the RNA is eluted in 50 μL of ultra-pure water. RNA quality was assessed using the 4150 TapeStation System (Agilent, Santa Clara, CA, United States). All samples used had RNA integrity number (RIN) scores >9.8. RNA concentration was determined using Quant-iT RNA Reagent and assay kit and Varioskan ALF multi-mode plate reader (ThermoFisher Scientific, Waltham, MA, United States) in duplicate, samples with high variability (coefficient of variance (CV) > 10) between reads were repeated in triplicate. The average of the quantification reads was used for RNA concentration normalization. […] All 94 samples were normalized using ultra-pure water to the lowest concentration sample − 14.9 ng/μL. […]

[3] = benchmark dose, morphology endpoint ANY_ (any effect)
[4] = benchmark dose, morphology endpoint AXIS
[5] = benchmark dose, morphology endpoint CRAN

With Cc1cccc2c(C)cccc12 [1,5-dimethylnaphthalene] the “BMC50 AXIS (curved or bent body axis at 120 hpf)” value (“BMC50 AXIS” for short) ([1]; Fig. 2, nominal concentration) was 47.6 µM, the “BMC50 CRAN (craniofacial malformation at 120 hpf)” value (“BMC50 CRAN” below) ([1]; Fig. 2, nominal concentration) was 48.3 µM and the “BMC50 EDEM (pericardial and/or yolk sac edema at 120 hpf)” value ([1]; Fig. 2, nominal concentration) was 47.8 µM. The “BMC50 MO24 (mortality at 24 hpf)” value ([1]; Fig. 2, nominal concentration) was “no MO24 BMC50”, the “BMC50 Any effect” value ([1]; nominal concentration) was 36.9 µM and the “any effect BMD50” value [1] was 36.95 µM. The “estimated percent Any effect” value [1] was 13%, the “bmd, ANY_” value [1, 3] was 36.9476 and the “bmd, AXIS” value [1, 4] was 47.5678. The “bmd, CRAN” value [1, 5] was 48.2521 and the “bmd, EDEM” value ([1]; benchmark dose, morphology endpoint EDEM) was 47.802.
With Cc1ccc2cccc(C)c2c1 [1,7-dimethylnaphthalene] the “BMC50 AXIS” value ([1]; Fig. 2, nominal concentration) was 23.9 µM, the “BMC50 LTRK (lower trunk and/or caudal fin at 120 hpf)” value ([1]; Fig. 2, nominal concentration) was 30 µM and the “BMC50 MORT (mortality at 120 hpf)” value ([1]; Fig. 2, nominal concentration) was “not associated with mortality”. For the same compound, the “BMC50 MUSC (muscular/cardiovascular at 120 hpf)” value ([1]; Fig. 2, nominal concentration) was 45.7 µM, the “BMC50 Any effect” value ([1]; nominal concentration) was 20.1 µM and the “any effect BMD50” value [1] was 20.09 µM. For the same compound, the “estimated percent Any effect” value [1] was 52%, the “bmd, ANY_” value [1, 3] was 20.0865 and the “bmd, AXIS” value [1, 4] was 23.9279. For the same compound, the “bmd, LTRK” value ([1]; benchmark dose, morphology endpoint LTRK) was 29.9891, the “bmd, MUSC” value ([1]; benchmark dose, morphology endpoint MUSC) was 45.7133 and the “number of differentially expressed genes (DEGs)” value ([2]; p-value ≤ 0.05 and log2FC ≥ |1|, result in words) was “substantially more DEGs than the rest of the chemicals tested”. The nt5dc2 expression ([2]; result in words) was “decreased expression”, the “logFC CCN1” value ([2]; vs global control (SI-T13)) was -1.157 and the “logFC FGFBP2B” value ([2]; vs global control (SI-T13)) was -1.676. The “logFC MFAP2” value ([2]; vs global control (SI-T13)) was -0.751, the “logFC PDE6GB” value ([2]; vs global control (SI-T13)) was -0.7875 and the “logFC PLOD1A” value ([2]; vs global control (SI-T13)) was -3.2359.
For Cc1cc(C)c2c(C)cccc2c1 [2,4,5-trimethylnaphthalene], the “BMC50 AXIS” value ([1]; Fig. 2, nominal concentration) was 24.2 µM, the “BMC50 CRAN” value ([1]; Fig. 2, nominal concentration) was 24.8 µM and the “BMC50 MO24 (mortality at 24 hpf)” value ([1]; Fig. 2, nominal concentration) was 25.7 µM. The “BMC50 MORT (mortality at 120 hpf)” value ([1]; Fig. 2, nominal concentration) was 24.2 µM, the “BMC50 Any effect” value ([1]; nominal concentration) was 22 µM and the “any effect BMD50” value [1] was 22.04 µM. The “bmd, MO24” value ([1]; benchmark dose, endpoint MO24) was 25.7458, the “bmd, MORT” value ([1]; benchmark dose, endpoint MORT) was 24.2071 and the “bmd, ANY_” value [1, 3] was 22.0373. For the same compound, the “bmd, AXIS” value [1, 4] was 24.1954 and the “bmd, CRAN” value [1, 5] was 24.8219.
For Cc1ccc2ccc(C)cc2c1 [2,7-dimethylnaphthalene], the “estimated percent Any effect” value [1] was 12% and the nt5dc2 expression ([2]; result in words) was “decreased expression”.
With CCc1ccc2ccccc2c1 [2-ethylnaphthalene] the “BMC50 AXIS” value ([1]; Fig. 2, nominal concentration) was 44.9 µM, the “BMC50 CRAN” value ([1]; Fig. 2, nominal concentration) was 45.7 µM and the “BMC50 EDEM (pericardial and/or yolk sac edema at 120 hpf)” value ([1]; Fig. 2, nominal concentration) was 42.3 µM. For the same compound, the “BMC50 LTRK (lower trunk and/or caudal fin at 120 hpf)” value ([1]; Fig. 2, nominal concentration) was 49.8 µM, the “BMC50 MO24 (mortality at 24 hpf)” value ([1]; Fig. 2, nominal concentration) was 47.1 µM and the “BMC50 MORT (mortality at 120 hpf)” value ([1]; Fig. 2, nominal concentration) was 44.6 µM. The “BMC50 Any effect” value ([1]; nominal concentration) was 35.2 µM, the “any effect BMD50” value [1] was 35.16 µM and the “bmd, MO24” value ([1]; endpoint MO24, benchmark dose) was 47.121. The “bmdL, MO24” value ([1]; endpoint MO24, lower limit of benchmark dose) was 45.5775, the “bmdU, MO24” value ([1]; endpoint MO24, upper limit of benchmark dose) was 48.8332 and the “bmd, MORT” value ([1]; endpoint MORT, benchmark dose) was 44.5979. The “bmdL, MORT” value ([1]; endpoint MORT, lower limit of benchmark dose) was 42.8494, the “bmdU, MORT” value ([1]; endpoint MORT, upper limit of benchmark dose) was 46.3328 and the “bmd, ANY_” value ([1]; morphology endpoint ANY_, benchmark dose) was 35.1578. For the same compound, the “bmdL, ANY_” value ([1]; morphology endpoint ANY_, lower limit of benchmark dose) was 33.394, the “bmdU, ANY_” value ([1]; morphology endpoint ANY_, upper limit of benchmark dose) was 36.9258 and the “bmd, AXIS” value ([1]; morphology endpoint AXIS, benchmark dose) was 44.9036. For the same compound, the “bmdL, AXIS” value ([1]; morphology endpoint AXIS, lower limit of benchmark dose) was 41.901, the “bmdU, AXIS” value ([1]; morphology endpoint AXIS, upper limit of benchmark dose) was 49.465 and the “bmd, CRAN” value ([1]; morphology endpoint CRAN, benchmark dose) was 45.7058. For the same compound, the “bmdL, CRAN” value ([1]; morphology endpoint CRAN, lower limit of benchmark dose) was 42.7078, the “bmdU, CRAN” value ([1]; morphology endpoint CRAN, upper limit of benchmark dose) was 50.351 and the “bmd, EDEM” value ([1]; morphology endpoint EDEM, benchmark dose) was 42.2958. The “bmdL, EDEM” value ([1]; morphology endpoint EDEM, lower limit of benchmark dose) was 39.552, the “bmdU, EDEM” value ([1]; morphology endpoint EDEM, upper limit of benchmark dose) was 46.0615 and the “bmd, LTRK” value ([1]; morphology endpoint LTRK, benchmark dose) was 49.8262. For the same compound, the “bmdL, LTRK” value ([1]; morphology endpoint LTRK, lower limit of benchmark dose) was 46.6984, the “bmdU, LTRK” value ([1]; morphology endpoint LTRK, upper limit of benchmark dose) was 55.8128 and the nt5dc2 expression ([2]; result in words) was “decreased expression”.
